Experimental findings from publication PMC11066871 (Journal of the American Chemical Society, 2024) are described below.

The subject of experiment [1] is anti-pS2 antibody 2G1. Description: Competitive ELISA with immobilized phosphopeptide 35. Format: binding, rabbit. The conditions noted are these: for LogIC50, best-fit value (Table S4, 2G1): log10 of competitor concentration, One site-Fit logIC50; for competition against immobilized peptide 35 for antibody binding (in words): peptide in solution, increasing concentrations. As for the experimental part:
(§1) The 100% binding value refers to binding of antibody to immobilized 35 in the absence of competitor.
(§2) A stock solution in immobilization buffer (NaH2PO4 200 mM, pH 7.4 ) was prepared for every test peptide. The […]
(§3) withdrawn and diluted step w ise with immobilization buffer from high µM range to 300 nM. Stock solution s an d sample s w ere stored at - 8 0°C.
(§4) - Thawing o f all the sampl es at room temperature for 30 min utes. The samples were quickly centrifuged and carefully mi xed before being used.
(§5) - Plating of the samples (100 µl) into a black non-binding 96-well plate that was previously conditioned overnight with wash buffer (NaH2PO4 200 mM, BS A 1% w/ v, Tween -20 0. 05%, pH 7. 4) and washed 3 times with the immobilization buffer.
(§6) - Sample s wer e transferred wit h a multi-channel pip ette to the clear Ni2+-coated 96 -well p late. Thi s plate-to-plate transfer provided full control of the timing of the Ni2+ -His6 interaction.
(§7) - Incubation for one hour at 25°C.
(§8) - Preparation of the primary antibody dilutions from the stock and then subsequent serial dilutions using […]
(§9) - Wash ing the plate 5 tim es for one minute with wa sh buffer (200 µl) .
(§10) - Plating of the primary antibody (100 µl) and incubation of the primary antibody for 1 hour at 37°C.
(§11) - Preparation of the dilution and plating (100 µl) of the secon dary antibody.
(§12) - Incubation for 30 minutes at 37°C.
(§13) - Wash ing the plate 5 times for one minute with wa sh buffer (200 µl) .
(§14) - Plating of the freshly prepared TMB-H 2O2 solution (1:1, 10 0 µl) .
(§15) - TMB solution incubation for 20 minutes at 25 °C.
(§16) - Plating of the Stop solution (2 M H2SO4, 1 00 µL).
(§17) - Incubation at 25°C for 1 minute.
(§18) - Plate reading at 450 nm, nor mal aperture, 1 second as m e asurem ent time . […]
(§19) for the primary and secondary antibodies. The average value of the optical density of the blanks was subtracted from the OD of the analyte s in the s ame plate befor e data analysi s. All the e xperi ments have be en perfor med a s biologi cal triplicate unless otherwise stated. […]
(§20) in each triplicate to provide randomization on the plate. […]
(§21) After the incubation time and the wash, the seri es of dilutions ( 300, 100, 50, 25, 1 2.5, 6.2 5, 2. 1 and 0.7 nM) of the co mpetit ors wa s plated, all […]
(§22) the samples in half the volu me (50 µL) and double the concentration. Incubation for 5 minutes at 25°C.
(§23) Plating of the primary antibody in half the volume (50 µL) and double the concentration. The final volume in each well was 100 µL, and the final concentration of the primary antibody was 1:1000. On the same plate, a highly concentrated sample of each competitor (1.2 µM) was also plated to evaluate p ossible unspecific

Experiment [2] relates to anti-pS2 antibody E1Z3G. The description is as above. Format: binding, rabbit. The conditions noted are these: for LogIC50, best-fit value (Table S4, E1Z3G): log10 of competitor concentration, One site-Fit logIC50; for competition against immobilized peptide 35 for antibody binding (in words): peptide in solution, increasing concentrations. As for the experimental part:
as §1, §2, §3, §4, §5, §6, §7, §8, §9, §10, §11, §12, §13, §14, §15, §16, §17, §18, §19, §20, §21, §22, §23

For experiment [3], the system named is anti-pS2 antibody EPR18855. The experiment is described as above. The settings on record: for LogIC50, best-fit value (Table S4, EPR18855): log10 of competitor concentration, One site-Fit logIC50; for competition against immobilized peptide 35 for antibody binding (in words): peptide in solution, increasing concentrations. Format: binding, rabbit. As for the experimental part: as §1, §2, §3, §4, §5, §6, §7, §8, §9, §10, §11, §12, §13, §14, §15, §16, §17, §18, §19, §20, §21, §22, §23

Experiment [4] deals with anti-pS2 antibody 2G1. Description: Indirect ELISA, relative binding at single antibody dilution. Further details: species or system rabbit. The settings on record: immobilized peptide. The method, then:
(§24) To allow rapid screening, the His6-tagged CTD peptides were immobilized onto Ni^2+-coated 96-well microtiter plates. The immobilized peptides were incubated with increasing concentrations of the anti-pS2 antibody E1Z3G. […] Next, positional scanning was performed with anti-pS2 antibodies EPR18855 (Abcam) and 2G1 (Thermo Fisher/Invitrogen). Here, and in subsequent experiments, we refrained from obtaining titration curves and instead determined the fold change of antibody binding relative to that of a reference binder (Figure 4B).
(§25) Figure 4 (A) Titration of the E1Z3G primary antibody to immobilized hexaheptade peptides. […] (C) Probing chelate and cluster effects upon binding of EPR18855, 2G1, and E1Z3G mAbs to hexaheptad peptides containing two or six pSer2 residues. […] 100 μL of TMB–H2O2 solution (1:1), 20 min, 25 °C, ii. 100 μL of 2 M H2SO4, 1 min, 25 °C. Washes and dilution of the antibodies were performed with NaH2PO4, 200 mM BSA (1% w/v), and 0.05% Tween-20 at pH 7.4. Assays were performed in triplicate with randomized positions of probes or antibodies.
as §2, §3, §4, §5, §6, §7, §8, §9, §10, §11, §12, §13, §14, §15, §16, §17, §18, §19, §20
(§26) - Relative affinity mea suremen ts: 3 serial dilutions o f the pri mary mAbs wer e used in the experi ment fro m […]
(§27) nM). The relati ve binding valu es wer e g enerated by dividing the OD value for each probe by the OD value of the referenc e peptide tested in the sa me plat e, with th e sa me conditions. […]

Experiment [5] concerns anti-pS2 antibody EPR18855. The description is as above. Further details: species or system rabbit. The settings on record: immobilized peptide. The method, then:
as §24, §25, §2, §3, §4, §5, §6, §7, §8, §9, §10, §11, §12, §13, §14, §15, §16, §17, §18, §19, §20, §26, §27

For experiment [6], the system named is anti-pS2 antibody E1Z3G. The experiment is described as above. Further details: species or system rabbit. The conditions noted are these: immobilized peptide. The method, then:
as §24, §25, §2, §3, §4, §5, §6, §7, §8, §9, §10, §11, §12, §13, §14, §15, §16, §17, §18, §19, §20, §26, §27

Turning to “Ac- YSPTSPS YSPTSPS YSPTSPS YSPTSPS YSPTSPS YSPTSPS -NH2 [compound 3, Ac-hexaheptad CTD peptide amide phosphorylated at each Thr4]”, in the experiment on anti-pS2 antibody 2G1 [1], the “LogIC50, best-fit value (Table S4, 2G1)” value was ~ 8.143 and the “competition against immobilized peptide 35 for antibody binding (in words)” value (shortened to “competition”) is reported as “not able to compete”. Also, in the experiment with anti-pS2 antibody E1Z3G [2], the “LogIC50, best-fit value (Table S4, E1Z3G)” value is recorded as -5.866 and the “competition” value is listed as “not able to compete”. In experiment [3], the “LogIC50, best-fit value (Table S4, EPR18855)” value was 8.303 and the “competition” value is “not able to compete”.

As for “Ac- YSPTSPS YSPTSPS YSPTSPS YSPTSPS YSPTSPS YSPTSPS -NH2 [compound 4, Ac-hexaheptad CTD peptide amide phosphorylated at each Ser5]”, in the experiment with anti-pS2 antibody 2G1 [1], the “LogIC50, best-fit value (Table S4, 2G1)” value stood at 7.562 and the “competition” value is “not able to compete”. Further, in the experiment on anti-pS2 antibody E1Z3G [2], the “LogIC50, best-fit value (Table S4, E1Z3G)” value is given as ~ -3.629 and the “competition” value is on record as “not able to compete”. Further, in experiment [3], the “LogIC50, best-fit value (Table S4, EPR18855)” value was found to be 1.287 and the “competition” value was “not able to compete”.

Regarding “H6-NH-(CH2)2-PEG6-CO-YSPTSPS-YpSPTSPS-(YSPTSPS)4-YAPTSPS-(YSPTSPS)2-YpSPTSPS-(YSPTSPS)2 [compound 28, dodecaheptad CTD peptide, pSer2 in heptads 2 and 10]”, the “recognition by 2G1 (in words)” value with anti-pS2 antibody 2G1 [4] is on record as “remained at the level of the monovalent phosphopeptide”. For the same substance, in experiment [5], the “recognition by EPR18855 (in words)” value is “remained at the level of the monovalent phosphopeptide”.

With “H6-NH-(CH2)2-PEG6-CO-YSPTSPS-YpSPTSPS-(YSPTSPS)4-YAPTSPS-(YSPTSPS)-YpSPTSPS-(YSPTSPS)3 [compound 27, dodecaheptad CTD peptide, pSer2 in heptads 2 and 9]”, the “recognition by 2G1 (in words)” value in the experiment with anti-pS2 antibody 2G1 [4] was “remained at the level of the monovalent phosphopeptide”. The “recognition by EPR18855 (in words)” value in experiment [5] is “remained at the level of the monovalent phosphopeptide”.

With “HHHHHH-NH-(CH2)2-(OCH2CH2)6-CO-YpSPTSPS-YpSPTSPS-YpSPTSPS-YpSPTSPS-YpSPTSPS-YpSPTSPS-NH2 [compound 7, His6-PEG6 hexaheptad CTD peptide, hexa-pSer2]”, in the experiment with anti-pS2 antibody 2G1 [4], the “recognition by 2G1 (in words)” value is recorded as “did not enhance binding”. Also, the “binding enhancement of E1Z3G relative to 35” value with anti-pS2 antibody E1Z3G [6] came to 5 fold. The “recognition by EPR18855 (in words)” value in experiment [5] is recorded as “did not enhance binding”.
